Source: ChEMBL document CHEMBL1201862, “PubChem BioAssay data set” (2004)
Values belong to the molecule of their own block, whether it stands above or below them. The source made the active and inactive calls.

Tests used:
[1] = biological target: T1, Rac GTPase-activating protein 1 (Homo sapiens, UniProt Q9H0H5); assay: blockers of MgcRacGAP-driven Rac1 GTP hydrolysis – biochemical, ADP Hunter fluorescence, primary and confirmatory, confirmation (AID 624330); type: functional
T1 sequence (Q9H0H5 whole entry): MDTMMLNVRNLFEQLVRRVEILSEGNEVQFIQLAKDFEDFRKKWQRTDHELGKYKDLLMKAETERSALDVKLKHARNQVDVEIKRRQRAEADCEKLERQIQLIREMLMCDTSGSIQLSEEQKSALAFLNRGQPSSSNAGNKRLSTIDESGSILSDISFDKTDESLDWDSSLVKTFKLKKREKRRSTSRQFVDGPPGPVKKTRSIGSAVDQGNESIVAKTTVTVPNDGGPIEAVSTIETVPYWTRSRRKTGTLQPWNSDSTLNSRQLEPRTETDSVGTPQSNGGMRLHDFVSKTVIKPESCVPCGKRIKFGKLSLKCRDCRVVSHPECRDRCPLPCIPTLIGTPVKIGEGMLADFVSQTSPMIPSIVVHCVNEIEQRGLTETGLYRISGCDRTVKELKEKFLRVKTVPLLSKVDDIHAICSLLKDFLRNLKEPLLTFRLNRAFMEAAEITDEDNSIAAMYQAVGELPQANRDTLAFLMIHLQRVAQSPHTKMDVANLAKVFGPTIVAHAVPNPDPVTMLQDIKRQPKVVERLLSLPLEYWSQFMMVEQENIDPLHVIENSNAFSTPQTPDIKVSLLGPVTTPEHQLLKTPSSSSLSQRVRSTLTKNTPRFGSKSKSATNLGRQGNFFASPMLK

[2] = biological target: T2, Heat shock factor protein 1 (Mus musculus, UniProt P38532); assay: decrease of HSF1-responsive luciferase luminescence – cell-based, NIH3T3, dose retest, confirmation (AID 2382); type: functional;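 further: NIH3T3 fibroblasts with HSF1-driven luciferase reporter stressed by proteasome inhibitor MG132; luminescence from HSF1-driven luciferase expression after 8 hours of MG132 stress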
T2 sequence (P38532 whole entry): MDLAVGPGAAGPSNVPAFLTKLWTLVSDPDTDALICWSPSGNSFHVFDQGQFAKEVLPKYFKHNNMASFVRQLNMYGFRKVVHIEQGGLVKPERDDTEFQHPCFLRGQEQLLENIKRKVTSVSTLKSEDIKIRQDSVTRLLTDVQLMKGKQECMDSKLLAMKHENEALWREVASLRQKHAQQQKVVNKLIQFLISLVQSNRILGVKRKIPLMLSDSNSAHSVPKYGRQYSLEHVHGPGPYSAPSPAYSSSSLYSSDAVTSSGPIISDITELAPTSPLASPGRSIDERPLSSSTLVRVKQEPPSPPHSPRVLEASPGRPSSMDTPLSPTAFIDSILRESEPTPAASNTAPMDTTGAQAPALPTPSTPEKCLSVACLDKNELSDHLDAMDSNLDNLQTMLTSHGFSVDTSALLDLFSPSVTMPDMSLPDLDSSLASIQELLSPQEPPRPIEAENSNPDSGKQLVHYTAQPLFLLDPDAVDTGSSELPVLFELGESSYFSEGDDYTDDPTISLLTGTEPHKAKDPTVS

[3] = biological target: T3, Microphthalmia-associated transcription factor (Homo sapiens, UniProt O75030); assay: reducers of TRPM1 reporter luminescence, concentration series – cell-based, SK-MEL-5, cherry-picked, set 3, MITF inhibitor project, dose response (AID 493073); type: functional;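 further: SK-MEL-5 melanoma cells with luciferase driven by the MITF target TRPM1 promoter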
T3 sequence (O75030 whole entry): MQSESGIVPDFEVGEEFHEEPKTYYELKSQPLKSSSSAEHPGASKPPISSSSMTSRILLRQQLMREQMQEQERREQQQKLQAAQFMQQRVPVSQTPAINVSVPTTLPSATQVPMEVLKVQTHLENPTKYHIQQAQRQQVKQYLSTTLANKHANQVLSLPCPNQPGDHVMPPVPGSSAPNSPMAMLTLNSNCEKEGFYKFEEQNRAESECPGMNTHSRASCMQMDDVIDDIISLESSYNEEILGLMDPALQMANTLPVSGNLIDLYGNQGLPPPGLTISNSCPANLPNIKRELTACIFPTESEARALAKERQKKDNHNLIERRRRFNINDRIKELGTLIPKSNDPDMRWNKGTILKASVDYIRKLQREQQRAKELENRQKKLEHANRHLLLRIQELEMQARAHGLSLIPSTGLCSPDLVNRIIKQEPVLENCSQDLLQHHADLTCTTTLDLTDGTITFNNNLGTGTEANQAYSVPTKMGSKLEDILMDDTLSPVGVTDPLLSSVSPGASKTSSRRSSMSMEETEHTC

[4] = biological target: Alkaline phosphatase, placental type (Homo sapiens, UniProt P05187); assay: human placental alkaline phosphatase inhibition – biochemical, luminescence, confirmation (AID 1512); type: functional
[5] = biological target: T4, Alkaline phosphatase, tissue-nonspecific isozyme (Homo sapiens, UniProt P05186); assay: potency against alkaline phosphatase TNAP – biochemical, luminescent, dose response, SAR follow-up (AID 1056)
T4 sequence (P05186 whole entry): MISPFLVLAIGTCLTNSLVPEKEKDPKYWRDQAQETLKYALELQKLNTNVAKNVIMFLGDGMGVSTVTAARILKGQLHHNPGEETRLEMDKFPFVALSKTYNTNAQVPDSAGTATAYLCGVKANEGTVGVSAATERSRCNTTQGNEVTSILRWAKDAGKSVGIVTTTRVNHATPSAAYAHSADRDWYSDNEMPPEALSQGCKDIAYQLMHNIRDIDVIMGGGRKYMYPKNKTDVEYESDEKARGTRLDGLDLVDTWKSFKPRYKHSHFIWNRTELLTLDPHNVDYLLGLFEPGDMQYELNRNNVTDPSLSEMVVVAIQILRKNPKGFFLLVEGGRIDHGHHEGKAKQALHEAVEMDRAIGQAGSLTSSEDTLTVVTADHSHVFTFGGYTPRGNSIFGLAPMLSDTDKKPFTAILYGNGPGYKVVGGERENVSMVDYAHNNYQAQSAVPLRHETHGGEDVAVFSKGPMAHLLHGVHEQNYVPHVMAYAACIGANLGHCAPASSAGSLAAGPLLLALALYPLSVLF

[6] = biological target: T5, Tyrosine-protein phosphatase non-receptor type 7 (Homo sapiens, UniProt P35236); assay: SAR analysis of chemical inhibitors of HePTP using a Fluorescent assay - Set 2. [Related pubchem assays (depositor defined):AID1059, AID1077, AID1661, AID2085, AID521]; type: functional
T5 sequence (P35236 whole entry): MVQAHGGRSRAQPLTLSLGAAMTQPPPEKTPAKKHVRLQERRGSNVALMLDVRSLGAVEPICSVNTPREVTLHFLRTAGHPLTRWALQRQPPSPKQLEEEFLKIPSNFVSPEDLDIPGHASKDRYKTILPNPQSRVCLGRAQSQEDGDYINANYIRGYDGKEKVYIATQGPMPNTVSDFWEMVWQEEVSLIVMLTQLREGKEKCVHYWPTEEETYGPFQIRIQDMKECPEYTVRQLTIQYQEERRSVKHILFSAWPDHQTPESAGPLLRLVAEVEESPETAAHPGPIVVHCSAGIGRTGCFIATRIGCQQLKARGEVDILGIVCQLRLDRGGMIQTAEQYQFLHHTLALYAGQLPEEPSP

[7] = biological target: Dual specificity protein phosphatase 3 (Homo sapiens, UniProt P51452); assay: SAR VHR1 Fluorescent Assay for In Vitro dose response studies Set 2. [Related pubchem assays (depositor defined):AID1654, AID1661, AID1878]; type: functional
[8] = biological target: T6, Ubiquitin-conjugating enzyme E2 N (Homo sapiens, UniProt P61088); type: functional
T6 sequence (P61088 whole entry): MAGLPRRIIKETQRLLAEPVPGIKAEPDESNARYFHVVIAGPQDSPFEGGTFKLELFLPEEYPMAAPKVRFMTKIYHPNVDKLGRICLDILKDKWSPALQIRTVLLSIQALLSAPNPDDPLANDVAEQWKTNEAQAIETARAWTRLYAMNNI

[9] = biological target: T6, Ubiquitin-conjugating enzyme E2 N; type: functional; remark: listed apart in the source
Bcl-2-related protein A1 = biological target: T7, Bcl-2-related protein A1 (Mus musculus, UniProt Q07440); type: functional;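 further: confirmatory dose–response counterscreen on Bfl-1, used to check hits from a UBC13 polyubiquitin inhibitor campaign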
T7 sequence (Q07440 whole entry): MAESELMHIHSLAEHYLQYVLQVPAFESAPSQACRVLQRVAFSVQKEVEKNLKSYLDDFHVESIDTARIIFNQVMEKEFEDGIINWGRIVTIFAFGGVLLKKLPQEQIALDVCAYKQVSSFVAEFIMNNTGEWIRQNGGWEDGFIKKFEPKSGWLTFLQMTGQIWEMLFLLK

[10] = biological target: Eukaryotic translation initiation factor 4E (Mus musculus, UniProt P63073); assay: blockers of eIF4G binding by eIF4E – biochemical, TR-FRET, dose response (AID 855); type: functional;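 further: potency for disrupting eIF4E binding to eIF4GI seen as loss of FRET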
[11] = Luminescence Cell-Based Dose Retest to Confirm Inhibitors of Cancer Stem Cells. [Related pubchem assays (depositor defined):AID2717, AID2721]; type: functional; conditions: Homo sapiens
[12] = biological target: E3 ubiquitin-protein ligase XIAP (Homo sapiens, UniProt P98170); assay: Counter Screen using XIAP-Bir3 for Chemical Antagonists of Bir1/2 domains of IAP-family anti-apoptotic proteins. [Related pubchem assays (depositor defined):AID1018, AID1449, AID1514, AID1638, AID1749, AID1750, AID488957, AID488963]
E3 ubiquitin-protein ligase XIAP, sequence (P98170 whole entry): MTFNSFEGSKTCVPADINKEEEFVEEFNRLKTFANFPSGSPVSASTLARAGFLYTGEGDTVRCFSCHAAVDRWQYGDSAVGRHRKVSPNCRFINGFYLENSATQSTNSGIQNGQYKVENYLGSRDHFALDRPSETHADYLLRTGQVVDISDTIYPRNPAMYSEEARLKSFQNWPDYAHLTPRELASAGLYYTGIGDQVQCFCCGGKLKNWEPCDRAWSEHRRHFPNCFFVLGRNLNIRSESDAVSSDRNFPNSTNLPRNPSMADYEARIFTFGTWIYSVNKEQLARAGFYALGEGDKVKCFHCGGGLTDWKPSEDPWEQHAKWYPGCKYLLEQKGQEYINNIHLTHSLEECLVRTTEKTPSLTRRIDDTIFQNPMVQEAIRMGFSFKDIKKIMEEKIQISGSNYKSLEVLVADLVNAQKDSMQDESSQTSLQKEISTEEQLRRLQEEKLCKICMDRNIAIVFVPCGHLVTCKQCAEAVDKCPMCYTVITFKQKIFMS

Dual specificity protein phosphatase 3, sequence (P51452 whole entry): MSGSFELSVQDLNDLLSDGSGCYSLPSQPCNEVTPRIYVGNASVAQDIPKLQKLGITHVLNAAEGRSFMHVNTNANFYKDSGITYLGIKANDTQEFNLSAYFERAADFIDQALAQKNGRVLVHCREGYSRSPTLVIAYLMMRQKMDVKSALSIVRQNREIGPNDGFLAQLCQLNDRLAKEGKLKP
Eukaryotic translation initiation factor 4E, sequence (P63073 whole entry): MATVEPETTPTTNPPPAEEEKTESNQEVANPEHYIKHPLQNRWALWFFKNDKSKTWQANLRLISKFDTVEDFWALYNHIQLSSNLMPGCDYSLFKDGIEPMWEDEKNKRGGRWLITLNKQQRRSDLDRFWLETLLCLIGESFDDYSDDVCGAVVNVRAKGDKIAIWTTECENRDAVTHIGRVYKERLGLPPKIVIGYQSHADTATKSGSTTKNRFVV
Alkaline phosphatase, placental type, sequence (P05187 whole entry): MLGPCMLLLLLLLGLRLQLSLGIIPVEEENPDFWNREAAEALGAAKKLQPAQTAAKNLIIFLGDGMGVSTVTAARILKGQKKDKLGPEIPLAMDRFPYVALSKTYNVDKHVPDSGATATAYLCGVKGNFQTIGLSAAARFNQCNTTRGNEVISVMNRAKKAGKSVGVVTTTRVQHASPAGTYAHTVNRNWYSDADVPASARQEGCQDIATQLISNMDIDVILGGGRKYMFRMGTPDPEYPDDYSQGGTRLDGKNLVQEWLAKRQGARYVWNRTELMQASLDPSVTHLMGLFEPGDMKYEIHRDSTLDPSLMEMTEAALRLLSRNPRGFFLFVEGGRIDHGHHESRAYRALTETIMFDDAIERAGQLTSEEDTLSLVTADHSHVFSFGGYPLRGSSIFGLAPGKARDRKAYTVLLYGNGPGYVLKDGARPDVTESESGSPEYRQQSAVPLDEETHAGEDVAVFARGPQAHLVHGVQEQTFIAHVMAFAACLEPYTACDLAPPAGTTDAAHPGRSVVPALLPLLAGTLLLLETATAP

IC50 [1]: 31.5 µM (active)
EC50 [2]: 4.26 µM (active)
AC50 [3]: 11.2 µM (active)
IC50 [4]: > 100 µM (inactive)
IC50 [5]: > 100 µM (inactive)
Compound: Nc1ccc2c(c1)OC1(CCCC1)O2

Compound: Oc1ccc(CCNC(=S)Nc2ccc(Cl)cc2Cl)cc1O
IC50 [6]: 18.8 µM (active)
IC50 [7]: 30.5 µM (active)

IC50 [8]: 12.3 µM (active)
IC50 [9]: > 20 µM (inactive)
IC50 (Bcl-2-related protein A1): > 20 µM (inactive)
Compound: CSCCC(NC(=O)COc1ccccc1)C(=O)N1CCC(C(N)=O)CC1 (stereo not given)

Compound: CCCOc1ccc(C(=S)NCc2ccc(F)c(C(F)(F)F)c2)cc1
IC50 [6]: 39.2 µM (active)
IC50 [7]: 71.7 µM (active)

Compound: CC(=O)Nc1ccc(/N=C/c2c(O)c(C(=O)Nc3ccccc3)cc3ccccc23)cc1
IC50 [10]: 50 µM (inactive)
AC50 [11]: 1.01 µM (active)
IC50 [12]: > 20 µM (inactive)
